Experiments:
Assay type in all cases: cell-based, human
SW480 colon cancer cells = assay: Propidium iodide / BrdU cell cycle analysis of synchronized cells
Description: Cell synchronization. Synchronized cells were synchronized by double thymidine block. Cells were treated with […] thymidine for sixteen hours. The drug was removed and replaced by complete growth media for eight hours. Cells were treated for the second time with […] thymidine for sixteen hours. At this point, cells were treated and harvested.
Propidium iodide and BrdU flow cytometry assay. Cells were seeded at a density of 5×10^5 in a 6-well plate and treated for forty-eight to seventy-two hours. After treatment, floating cells were collected, and adherent cells were trypsinized, pelleted, washed with phosphate-buffered saline, and fixed in 70% ethanol overnight. For propidium iodide (PI) based Sub-G1 apoptosis analysis, cells were spun down after fixation and resuspended in phosphate-citric acid buffer (0.2M Na2HPO4+0.1M Citric Acid, pH 7.8) at room temperature for five minutes. The cell pellet was resuspended for staining with 50 μg/mL PI and 250 μg/mL ribonuclease (RNase A). For BrdU analysis, after cell fixation, cells were spun down and resuspended in one mL of 2N HCL with 0.5% Triton X-100 for thirty minutes at room temperature. Cells were pelleted, washed with phosphate-buffered saline, and resuspended in 20 μL BrdU antibody (BD Biosciences, cat no. 347580) diluted in 0.5% Tween 20/PBS/5% bovine serum albumin for thirty minutes at room temperature. Cells were then spun down and resuspended in 140 μg/mL goat-anti mouse Alexa Fluor 488 (#A-11008, Thermo Fisher Scientific, Waltham, Mass., USA) in 0.5% Tween 20 in phosphate-buffered saline/5% bovine serum albumin for thirty minutes at room temperature. Cells were then spun down and resuspended in 5 μg/mL PI: 250 μg/mL RNase A solution. Samples were analyzed on an Epics Elite Epics flow cytometer (Coulter-Beckman).
BrdU analysis gating. Cell aggregates were gated out in the PI Peak vs DNA PI histogram. BrdU lower limit intensity was set on the upper limit of the negative control. The no BrdU antibody assays and no goat-anti mouse Alexa Fluor 488 antibody assays were the negative controls. […] Gating was held constant throughout the samples within a given assay.

HCT116 p53 R175H = assay: CellTiter-Glo (Cell-Titer glow) cytotoxicity assay; settings: forty-eight hours
Description: (§1) CellTiter-Glo® luminescent cell viability assay. Cells were seeded in 96-well plates at a density of 5×10^3 cells per well. 20 μL of CellTiter-Glo® Reagent was added directly to the wells, following the manufacturers protocol. The bioluminescence signal was determined using an IVIS imaging system, optionally at a period of 48-72 hours after treatment.
Overexpression of p53 R175H mutant by lentivirus infection. HCT116 p53^−/− cells, obtained from the Vogelstein Laboratory, Johns Hopkins University, were infected with a lentivirus vector containing the p53 R175H mutant (pLenti6/V5-p53_R175H, Addgene). Cells were selected with blasticidin (8 μg/mL)-containing media cultured for ten days. Blasticidin-resistant clones (pooled clones) were screened for expression of the p53 R175H mutation by Western blot analysis with p53 DO-1 antibody.
CB002-analog #4 is a potent anti-tumor agent in vitro and in vivo. The inventors focused on lead CB002-analog #4 and investigated its therapeutic index in vitro and in vivo. The inventors treated an isogenic HCT116 cell line panel with 100 μM CB002 or 25 μM CB002-analog #4 and established IC50 values by the Cell-Titer glow cytotoxicity assay. Across this panel, CB002-analog #4 has a 20-fold to 30-fold range in IC50 values, independently of the HCT116 p53-status.

SW480 cells [1] = assay: Clonogenic (colony formation) assay; settings: SW480, versus CB002
Description: Colony formation assay. Cells were seeded in 6-well plates at a density of 500 cells per well. Cells were treated with CB002 small molecules for twenty-four hours. Then, cells were cultured in complete drug-free media for fifteen days. During the fifteen days, the media was changed every two-three days. At the end of the two weeks, the media was removed. Wells were washed twice with Dulbecco's phosphate-buffered saline (PBS). The colonies were fixed and stained with 10% methanol and 0.25% crystal violet (Sigma-Aldrich, St. Louis, Mo., USA) for thirty minutes. Wells were then carefully washed with distilled, deionized water and allowed to dry.

[2] = tested on: colorectal cancer patient-derived organoid; assay: Cytotoxicity and immunofluorescence in patient-derived organoid; settings: for cleaved caspase-3 staining (apoptotic cells): IC50 doses; for ethidium homodimer staining (dead cells): compared to vehicle control
Description: as §1
Immunohistochemistry. 30,000 cells/well were seeded in 8-chamber slides. Cells were washed with phosphate-buffered saline at the harvesting time point and fixed with 4% parafornaldehyde for 25 minutes. Cells were then washed with phosphate-buffered saline and permeabilized with 0.2% Triton X-100 for 5-10 minutes. Cells were then washed with phosphate-buffered saline and incubated overnight 1:100 with the primary antibody Cyt-C (#sc-13560, Santa Cruz Biotechnology, Santa Cruz, Calif., USA), Tom-20 (#42406), commercially available from Cell Signaling Technology, Inc., Danvers, Mass. USA), cells were washed with phosphate-buffered saline and incubated with secondary antibody 1:200 goat-anti mouse Alexa Fluor 488 (#A-11008, Thermo Fisher Scientific, Waltham, Mass., USA) and Cy3 AffiniPure Donkey anti-rabbit (#711-165-152, Jackson ImmunoResearch, West Grove, Pa., USA) for one hour followed by phosphate-buffered saline washing, 1:400 Dapi staining, washed with phosphate-buffered saline, and imaged. Organoid viability imaging was determined by CellTrace™ Calcein Green (#C34852, Thermo Fisher Scientific, Waltham, Mass., USA), Ethidium Homodimer-1 (#E1169, Thermo Fisher Scientific, Waltham, Mass., USA), Ki67 incubated at 37° C. for one hour then washed with phosphate-buffered saline and imaged. Imaging was done using a Leica Confocal Microscope.

SW480 cells [3] = assay: Propidium iodide Sub-G1 apoptosis analysis; settings: compared to vehicle control, forty-eight hours
Description: Apoptosis assay. Apoptotic cells were quantified by sub-G1 analysis. Cells were seeded at a density of 2.5×10^5to 5×10^5in a 6-well plate and treated forty-eight to seventy-two hours. After treatment, adherent cells were trypsinized and collected along with floating cells, washed with phosphate-buffered saline, and fixed in 70% ethanol. Cells were then incubated in a phosphate-citric acid buffer (0.2M Na2HPO4+0.1M citric acid, pH 7.8) at room temperature for five minutes, spun down, and resuspended for staining with 50 μg/mL propidium iodide (PI) in the presence of 250 μg/mL pancreatic ribonuclease (RNase A). Sub-G1 analyses were performed using an Epics Elite Epics flow cytometer (Coulter-Beckman).
Propidium iodide and BrdU flow cytometry assay. Cells were seeded at a density of 5×10^5 in a 6-well plate and treated for forty-eight to seventy-two hours. After treatment, floating cells were collected, and adherent cells were trypsinized, pelleted, washed with phosphate-buffered saline, and fixed in 70% ethanol overnight. For propidium iodide (PI) based Sub-G1 apoptosis analysis, cells were spun down after fixation and resuspended in phosphate-citric acid buffer (0.2M Na2HPO4+0.1M Citric Acid, pH 7.8) at room temperature for five minutes. […] Samples were analyzed on an Epics Elite Epics flow cytometer (Coulter-Beckman).

Row | Structure (SMILES) | S-phase accumulation (SW480 colon cancer cells; eight hours following release from synchronization) | increase of cells in S-phase (SW480 colon cancer cells; twelve hours, PI and BrdU co-staining, compared to DMSO vehicle control) | G2-phase cells versus etoposide (SW480 colon cancer cells; twenty-four hours) | IC50 (HCT116 p53 R175H) | cytotoxicity by clonogenic assay (SW480 cells [1]) | organoid size (calcein staining) [2] | cleaved caspase-3 staining (apoptotic cells) [2] | ethidium homodimer staining (dead cells) [2] | Ki-67 staining (proliferating cells) ([2]; seventy-two hours, dose-dependent) | cytotoxicity (cell viability response curve) ([2]; versus CB002 parent compound) | Sub-G1 content (SW480 cells [3]) | S-phase delay, difference (SW480 colon cancer cells; six-eight hours of treatment, combined with etoposide) | IC50 (HCT116 p53 R175H; Homo sapiens, HCT-116)
1 | Cn1c(=O)c2[nH]c(Nc3cccc(C(F)(F)F)c3)nc2n(C)c1=O [CB002-analog #4] | S-phase accumulation | 30% | no significant differences | 4.46 µM | more cytotoxic in vitro than CB002 | smaller in size | increases apoptotic cells | increase of ethidium homodimer staining | decreases the population of proliferating cells | enhances cytotoxicity compared to the CB002 parent compound | significant increase of Sub-G1 content | – | –
2 | Cn1c(=O)c2[nH]c(Nc3ccccc3)nc2n(C)c1=O [CB002] | – | – | – | – | – | – | increases apoptotic cells | increase of ethidium homodimer staining | – | – | – | 2 fold | 400 µM
